Test results reported in patent US20110112192A1, “VERFAHREN ZUR GERUCHSEXTINKTION” (priority 2007, published 2011).

Key:
[1] = Administration of acetylcysteine after the consumption of a garlic containing meal; format: in vivo, human; details: ACC-fizzing tablets (Hexal) given after the meal; 50 mg female test persons (32 to 74 kg), 75 mg male test persons (52 to 98 kg); 15 tests per person
Protocol: 1. Administration of acetylcysteine after the consumption of a garlic containing meal Battery of tests with 15 tests per person. Dosing: 50 mg with female test persons (32 to 74 kg body weight) i. 75 mg with male test persons (52 to 98 kg body weight) In these tests, the ACC-fizzing tablets of the Hexal company were applied. The positive test results were observed each within a time window of 10 to 20 minutes after administration of the acetylcysteine.

[2] = Administration of acetylcysteine before the consumption of a garlic containing meal; format: in vivo, human; details: administration about 10 minutes before the meal; 50 mg female, 75 mg male test persons; 15 tests per person
Protocol: 2. Administration of an acetylcysteine before the consumption of a garlic containing meal Battery of tests and dosage applied the same as under 1. The administration of acetylcysteine was done about 10 minutes before the meal.

## CC(=O)N[C@@H](CS)C(=O)O [acetylcysteine]
[1]
  odor after garlic containing meal: no odor in all tests
[2]
  odor formation after garlic containing meal: odor formation was likewise prevented
